The record followed here is PubChem BioAssay (NCI).

“And” between values parts separate entries of the source, which are not always exact repeats. Equal entries are not always repeated.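 Growth conditions: 96-well plates. Treatment: test compound, 48 hours, 5 concentrations. Analysis: linear interpolation between bracketing concentrations; unreached endpoints set to highest concentration. GI50 marks 50% less growth. TGI: concentration producing complete growth inhibition.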

Test systems include NCI-H23 lung; SN12C renal; SF-268 CNS; PC-3 prostate; UACC-62 melanoma; COLO 205 colon; OVCAR-8 ovarian; T-47D breast; SF-539 CNS; ACHN renal.
What all share (experiment): NCI-60 cell line screen, 48 h

With `O=C(CS(=O)c1nc2ccccc2nc1-c1ccccc1)Nc1ccc(Cl)cc1` (stereo unspecified), the GI50 in the test on NCI-H23 lung was 30700 nM; in the test on SN12C renal, 18.2 µM; in the test on SF-268 CNS, 24.9 µM; with PC-3 prostate, 26100 nM; in the test with UACC-62 melanoma, 16000 nM; in the test with COLO 205 colon it was 23400 nM. The GI50 in the test with OVCAR-8 ovarian was 38.3 µM; with T-47D breast, 32700 nM; in the test on SF-539 CNS, 14000 nM; in the test with ACHN renal, 21400 nM. Moreover, the TGI in the test on NCI-H23 lung is greater than 100 µM; with SN12C renal it was 33.7 µM; in the test on SF-268 CNS, 88.2 µM; with PC-3 prostate, greater than 100 µM; in the test with UACC-62 melanoma, 40.7 µM; with COLO 205 colon, 58.6 µM. For the same compound, the TGI was greater than 100 µM in the test on OVCAR-8 ovarian, greater than 100 µM in the test with T-47D breast, greater than 100 µM in the test on SF-539 CNS and 51.1 µM in the test on ACHN renal.

For the compound `Cc1cc2oc(=O)cc(OC/C=C3/CCC(=O)O3)c2cc1C`, the GI50 with NCI-H23 lung was 8040 nM; with SN12C renal, 5.2 µM; in the test on SF-268 CNS, 6.46 µM; with PC-3 prostate it was 1740 nM; with UACC-62 melanoma it was 3380 nM; with COLO 205 colon, 2190 nM. The GI50 is 4.62 µM with OVCAR-8 ovarian, 1690 nM in the test with T-47D breast, 1340 nM in the test on SF-539 CNS and 804 nM in the test with ACHN renal. Also, the TGI in the test with NCI-H23 lung was 22.5 µM; in the test with SN12C renal it was 22.5 µM; with SF-268 CNS, 40.1 µM; in the test with PC-3 prostate it was 11.4 µM; with UACC-62 melanoma it was 13.6 µM; in the test on COLO 205 colon, 10.4 µM. Also, the TGI in the test with OVCAR-8 ovarian came to 19.5 µM; in the test with T-47D breast, 7.5 µM; in the test with SF-539 CNS it was 5.7 µM; in the test on ACHN renal it was 2.04 µM.

As for `COc1ccc(C2CC(c3ccc4ccccc4c3)=NN2c2nc(O)c(C3=c4cc(Cl)ccc4=NC3=O)s2)cc1` (stereo unspecified), the GI50 in the test with NCI-H23 lung was 22.6 nM and < 5 nM; with SN12C renal, 0.0264 µM and < 0.005 µM; in the test on SF-268 CNS it was 0.0291 µM and < 0.005 µM; in the test with PC-3 prostate, 28.3 nM and < 5 nM; in the test with UACC-62 melanoma, 29.6 nM and < 5 nM; with COLO 205 colon it was 22.1 nM. Also, the GI50 is 0.0328 µM in the test on OVCAR-8 ovarian; 22.3 nM and < 5 nM in the test with T-47D breast; 19.5 nM and < 5 nM with SF-539 CNS; 25 nM and < 5 nM with ACHN renal. Moreover, the TGI was 0.0503 µM with COLO 205 colon; 0.0402 µM and < 0.005 µM in the test on SF-539 CNS.

Regarding `CCc1c2c(nc3ccc(OC(=O)OCc4ccc(B5OC(C)(C)C(C)(C)O5)cc4)cc13)-c1cc3c(c(=O)n1C2)COC(=O)[C@]3(O)CC`, the GI50 in the test on NCI-H23 lung was less than 10.7 nM; in the test with SN12C renal, less than 0.01 µM; in the test with SF-268 CNS, less than 0.01 µM; with PC-3 prostate, 51.4 nM; in the test with UACC-62 melanoma, less than 10 nM; in the test on COLO 205 colon, 80.4 nM. Also, the GI50 was less than 0.0111 µM in the test with OVCAR-8 ovarian, less than 10 nM with T-47D breast, less than 10 nM in the test on SF-539 CNS and less than 10 nM in the test with ACHN renal. The TGI in the test with NCI-H23 lung was 0.437 µM; in the test with SN12C renal it was greater than 54.7 µM; with SF-268 CNS, 1.69 µM; with PC-3 prostate, greater than 100 µM; in the test on UACC-62 melanoma it was 0.104 µM; in the test on COLO 205 colon, 24.5 µM. Besides, the TGI was greater than 71.4 µM in the test on OVCAR-8 ovarian, greater than 100 µM in the test on T-47D breast, 0.0286 µM in the test on SF-539 CNS and 0.432 µM with ACHN renal.

Take `Oc1ccccc1/C=N\Nc1ccccc1`: the GI50 with NCI-H23 lung is 12000 nM; in the test with SN12C renal it was 3.41 µM; in the test on SF-268 CNS it was 18.6 µM; in the test on PC-3 prostate, 9320 nM; with UACC-62 melanoma, 798 nM; in the test with COLO 205 colon it was 5920 nM. The GI50 in the test with OVCAR-8 ovarian was 4.94 µM; in the test on T-47D breast it was 3430 nM; in the test with SF-539 CNS, 2180 nM; in the test on ACHN renal, 2840 nM. Besides, the TGI was 84.1 µM in the test on NCI-H23 lung; greater than 100 µM in the test on SN12C renal; greater than 100 µM in the test on SF-268 CNS; greater than 100 µM with PC-3 prostate; 10.1 µM in the test on UACC-62 melanoma; 21.3 µM with COLO 205 colon. The TGI in the test on OVCAR-8 ovarian was greater than 100 µM; with T-47D breast it was greater than 100 µM; with SF-539 CNS, 5.59 µM; with ACHN renal, 62.2 µM.

For `CCCn1cc(/C=N\N=C2\C(=O)Nc3ccc(C)cc32)c2ccccc21`, the GI50 in the test with NCI-H23 lung is 3130 nM; with SN12C renal, 3.2 µM; with SF-268 CNS, 3.33 µM; with PC-3 prostate, 1830 nM; with UACC-62 melanoma, 2240 nM; in the test with COLO 205 colon, 1250 nM. Moreover, the GI50 was 5.41 µM with OVCAR-8 ovarian, 416 nM in the test with T-47D breast, 2690 nM in the test on SF-539 CNS and 3560 nM with ACHN renal. Besides, the TGI worked out at 38.2 µM in the test on NCI-H23 lung; 75.9 µM in the test with SN12C renal; 28 µM in the test on SF-268 CNS; 5.17 µM in the test on PC-3 prostate; 12.1 µM in the test with UACC-62 melanoma; 3.06 µM with COLO 205 colon. Further, the TGI in the test with OVCAR-8 ovarian is greater than 100 µM; in the test on T-47D breast, 18.4 µM; in the test on SF-539 CNS, 17.1 µM; in the test with ACHN renal, greater than 100 µM.

For the compound `C=C1C(=O)O[C@H]2C3OC3(C)CC/C=C(/C(=O)OC)[C@@H](OC(C)=O)[C@H](OC(=O)C3(C)OC3C)[C@H]12` (stereo partly specified), the GI50 is 1930 nM and 2680 nM in the test on NCI-H23 lung; 1.5 µM and 2.97 µM and 2.45 µg/mL with SN12C renal; 2.44 µM and 3.42 µM and 4.97 µg/mL in the test with SF-268 CNS; 2990 nM with PC-3 prostate; 1.59 µM and 1.66 µg/mL with UACC-62 melanoma; 506 nM and 487 nM and 0.263 µg/mL in the test with COLO 205 colon. In addition, the GI50 in the test with OVCAR-8 ovarian is 2.13 µM and 699 nM and 0.351 µg/mL; in the test on T-47D breast it was 4600 nM; with SF-539 CNS, 2.88 µM and 1.98 µM and 3.21 µg/mL; in the test with ACHN renal, 2.07 µM and 434 nM and 0.944 µg/mL. Besides, the TGI was 7.27 µM and 6.54 µM in the test on NCI-H23 lung; 4.68 µM and 10.4 µM and 6.03 µg/mL in the test with SN12C renal; 35.7 µM and 14.9 µg/mL in the test on SF-268 CNS; 5.16 µM and 11.7 µM with PC-3 prostate; 3.01 µM and 3.64 µg/mL in the test on UACC-62 melanoma; 1.81 µM and 1.86 µM and 0.495 µg/mL with COLO 205 colon. For the same compound, the TGI is 2.98 µM and 3.01 µg/mL in the test on OVCAR-8 ovarian; 7.5 µM and 6.28 µM and 7.06 µg/mL with SF-539 CNS; 6.36 µM and 3.12 µM and 2.75 µg/mL with ACHN renal.
